Results from patent US20070244009A1, “Agent for Inhibiting Bolting Induction and/or Floral-Bud Differentiation in Plants” (National University Corporation Hokkaido Universit, priority 2004, published 2007).
Entries after “also recorded” stand apart in the source; their conditions may differ.

Experiments:
[1] = test system: spinach (Spinacia oleracea L.); assay: Stem elongation (bolting) of spinach after foliar spraying; assay type: in vivo
Procedure: (§1) In other words, while they searched for the substance having bolting induction inhibition and/or floral differentiation inhibition activities, they examine the effect of theobroxide on stem elongation and differentiation of floral-buds in spinach (long-day plant), after spraying theobroxide on the surfaces of spinach leaves. The day-length conditions examined were long-day (16 hours-light period, 8 hours-dark period), and short-day (10 hours-light period, 14 hours-dark period). The concentration of theobroxide for foliar application is set at 10^−3 M, and testing was started after a preliminary growth (two weeks, long-day condition). The spraying condition was that 5 ml of the solution was sprayed over four weeks every two days after the preliminary growth. As the results, under the short-day condition (bolting non-inducing condition), no difference was observed when compared to the control. Under the long-day condition (bolting induction and floral differentiation condition), the stem elongation of the theobroxide treated plants was suppressed 37% in the fourth week, when compared to that of the control.
(§2) Before the test, spinach was grown for 5 weeks in a growth chamber (NK Systems, Biotron NC350), under a short-day (SD) condition (light period-10 hours/dark period-14 hours) with a peat moss/Pearlite mixture (1:1.5, v/v). A test solution was sprayed on leaves every two days. Water and Hyponex in liquid form (manufactured by Hyponex Japan Co.) were given to the plants every two days and once a week, respectively. The long-day (LD) and short-day (SD) photoperiodic cycles were 16-hour light period/8-hour dark period, and 10-hours light period/14-hour dark period, respectively. The growth chamber was equipped with 20 fluorescent lamps (NEC FL40SEX-N-HG) to provide a light intensity of 90 μmol^−2s^−1, and set at 25 degrees centigrade and the relative humidity of 60%. The test used ten plants for each processing, and was repeated at least three times.
The theobroxide for the test was isolated from the incubation filtrate of Lasiodiplodia theobromae. The data of NMR, RI and MS were compared with the standard one and their structures were confirmed. Theobroxide was dissolved in distilled water that includes Tween 20 (100 ppm) to adjust its concentration to 10^−3M. To the plants for the control, the same amount of distilled water including 100 ppm of Tween 20 was given. The two kinds of solution were given to leaves of the plants, the total of 5 ml per plant, every two days, using plastic spray bottles. […] Stem heights from the bases of stems to the tip of the stems or the inflorescence were measured (Plant Physiol.: 821-827,1971).

[2] = test system: spinach (Spinacia oleracea L.); assay: Floral differentiation of spinach after foliar spraying; assay type: in vivo; settings: 10^-3 M foliar spray; for Floral Differentiation Rate (%) Average: mean of three tests
Procedure: as §1, §2
The theobroxide for the test was isolated from the incubation filtrate of Lasiodiplodia theobromae. The data of NMR, RI and MS were compared with the standard one and their structures were confirmed. Theobroxide was dissolved in distilled water that includes Tween 20 (100 ppm) to adjust its concentration to 10^−3M. To the plants for the control, the same amount of distilled water including 100 ppm of Tween 20 was given. The two kinds of solution were given to leaves of the plants, the total of 5 ml per plant, every two days, using plastic spray bottles. After planting them in advance, 20 boxes were transferred to the LD condition for a LD treatment (10 boxes of which was for control, and the other 10 boxes for the theobroxide treatment). After planting them in advance, 20 boxes were left under the SD for a SD treatment as before (10 boxes of which is for the control, and the other 10 boxes for theobroxide treatment). Stem heights from the bases of stems to the tip of the stems or the inflorescence were measured (Plant Physiol.: 821-827,1971).
In addition, in the tests shown in Table 1, plants were grown under a long-day condition for six weeks. The theobroxide treatment was started after they were transferred to the long-day condition. After six weeks, the plants were collected, and the number of the plants in which floral differentiation took place was counted.

[3] = test system: potato; settings: culture of a single node section of a potato stem; cited from earlier work
[4] = test system: potato; settings: solution sprayed to leaflets of potato, non-inducing conditions; cited from earlier work
[5] = test system: morning glory; settings: solution sprayed to leaves of morning glory, non-inducing conditions; cited from earlier work
[6] = test system: morning glory; settings: in vivo; cited from earlier work

For `CC1=CC(O)C2OC2C1O` (stereo not shown) [theobroxide, 3,6-dihydroxy-4,5-epoxy-1-methylcyclohexene], the “stem elongation (FIGS. 3A-B, FIG. 4), result in words” value ([1]; induction condition (LD), theobroxide treatment) was “stem elongation was suppressed”, the “suppression effect on stem lengths compared to the control” value ([1]; long-day (LD) condition, 10^-3 M foliar spray, after six weeks) was 37% and the “suppression of stem elongation compared to the control” value ([1]; long-day condition, 10^-3 M foliar spray, 5 ml every two days, fourth week) was 37%. The “difference in stem lengths compared to the control” value ([1]; short-day condition (bolting non-inducing), 10^-3 M foliar spray) was “no difference; also recorded: not apparent difference”, the “Floral Differentiation Rate (%) Test 1” value ([2]; long-day condition, six weeks, Test 1) was 50% (5/10) and the “Floral Differentiation Rate (%) Test 2” value ([2]; long-day condition, six weeks, Test 2) was 40% (4/10). The “Floral Differentiation Rate (%) Average” value ([2]; long-day condition, six weeks) was 43.3%, the “Floral Differentiation Rate (%) Average” value ([2]; long-day condition, six weeks, listed as Theobroxide) was 43.3% and the “difference in flower formation compared to the control” value ([2]; short-day condition) was “no difference; also recorded: not apparent difference”. The “potato tuber formation activity” value [3] was “strong potato tuber formation activity”, the potato tuber formation [4] was “strong potato tuber formation” and the “flower buds inducing activity” value [5] was “flower buds inducing activity”. The “effect on stem elongation of morning glory” value [6] was “inhibitory effect”.
